Test results taken from ChEMBL document CHEMBL1201862, “PubChem BioAssay data set” (2004).
The source made the active and inactive calls.

What was measured:
HSP90 = HSP90 (Plasmodium falciparum 3D7, UniProt Q8IL32); type: functional, organism-based
H4 = experiment: Luminescence Cell-Based Dose Response HTS to Identify Activators of 5'UTR Stem-Loop Driven Prion Protein mRNA Translation in H4 Neuroglioblastoma Cells. [Related pubchem assays: 1829 (Project Summary), 1814 (Primary HTS)]; type: functional; details: Homo sapiens
[1] = target: Glycogen synthase kinase-3 beta (Homo sapiens, UniProt P49841); experiment: Inhibition of Human GSK-3 beta Activity Measured in Biochemical System Using Microfluidics - 2063-05_Inhibitor_Dose_DryPowder_Activity_Set2. [Related pubchem assays (depositor defined):AID2709]
Chain of Glycogen synthase kinase-3 beta (P49841 whole entry): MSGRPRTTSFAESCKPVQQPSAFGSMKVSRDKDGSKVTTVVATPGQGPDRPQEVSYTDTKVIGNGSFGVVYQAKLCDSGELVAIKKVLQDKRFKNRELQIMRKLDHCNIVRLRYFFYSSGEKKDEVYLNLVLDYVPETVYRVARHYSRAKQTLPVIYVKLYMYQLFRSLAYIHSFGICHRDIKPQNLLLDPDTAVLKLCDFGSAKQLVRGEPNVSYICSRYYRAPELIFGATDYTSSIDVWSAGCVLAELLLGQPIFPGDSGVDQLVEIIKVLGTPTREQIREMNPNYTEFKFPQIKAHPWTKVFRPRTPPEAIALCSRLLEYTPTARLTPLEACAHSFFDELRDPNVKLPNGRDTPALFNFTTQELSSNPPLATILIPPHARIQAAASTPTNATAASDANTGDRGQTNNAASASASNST

[2] = target: Cyclin-dependent kinase 5/CDK5 activator 1 (Homo sapiens, UniProt Q00535); experiment: CDK5-p25 kinase inhibitors, specificity check, dose response, selectivity assay for GSK-3 alpha inhibitor project, biochemical, microfluidic mobility shift, dry powder (AID 588430)
Chain of Cyclin-dependent kinase 5/CDK5 activator 1 (Q00535 whole entry): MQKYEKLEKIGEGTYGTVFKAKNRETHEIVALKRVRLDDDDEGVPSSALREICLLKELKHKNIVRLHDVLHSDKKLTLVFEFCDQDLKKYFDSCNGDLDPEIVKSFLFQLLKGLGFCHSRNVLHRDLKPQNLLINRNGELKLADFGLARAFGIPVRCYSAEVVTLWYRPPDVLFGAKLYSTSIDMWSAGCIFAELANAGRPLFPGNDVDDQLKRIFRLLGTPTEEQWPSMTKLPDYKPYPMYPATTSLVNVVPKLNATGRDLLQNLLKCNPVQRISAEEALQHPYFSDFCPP
Chain of Cyclin-dependent kinase 5/CDK5 activator 1 (Q15078 whole entry, further chain): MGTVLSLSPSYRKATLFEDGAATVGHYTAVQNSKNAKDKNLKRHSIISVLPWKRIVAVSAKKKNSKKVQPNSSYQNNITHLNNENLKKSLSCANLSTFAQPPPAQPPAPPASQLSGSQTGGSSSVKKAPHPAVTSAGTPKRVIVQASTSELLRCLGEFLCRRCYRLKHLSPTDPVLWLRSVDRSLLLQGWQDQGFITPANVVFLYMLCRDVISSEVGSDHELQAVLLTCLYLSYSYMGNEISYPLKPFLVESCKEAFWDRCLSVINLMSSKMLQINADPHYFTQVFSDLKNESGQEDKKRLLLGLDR

[3] = Luminescence Cell-Based Dose Response to Identify Activators of 5'UTR Stem-Loop Driven Prion Protein mRNA Translation in H4-C Neuroglioblastoma Cells. [Related pubchem assays: 1829 (Project Summary), 1814 (Primary HTS)]; type: functional
[4] = Luminescence Cell-Based Dose Response HTS to Identify Activators of Luciferase Translation or Activity in H4 […] Cells. [Related pubchem assays: 1829 (Project Summary), 1814 (Primary HTS)]; type: functional
[5] = Luminescence Cell-Based Dose Confirmation HTS to Identify Activators of 5'UTR Stem-Loop Driven Alpha-Synuclein mRNA Translation in H4 Neuroglioblastoma Cells. [Related pubchem assays: 1829 (Project Summary), 1814 (Primary HTS)]; type: functional
[6] = target: Glycogen synthase kinase-3 alpha (Homo sapiens, UniProt P49840); experiment: Inhibition of Human GSK-3 alpha Activity Measured in Biochemical System Using Microfluidics - 2063-06_Inhibitor_Dose_DryPowder_Activity_Set2. [Related pubchem assays (depositor defined):AID2709]
Chain of Glycogen synthase kinase-3 alpha (P49840 whole entry): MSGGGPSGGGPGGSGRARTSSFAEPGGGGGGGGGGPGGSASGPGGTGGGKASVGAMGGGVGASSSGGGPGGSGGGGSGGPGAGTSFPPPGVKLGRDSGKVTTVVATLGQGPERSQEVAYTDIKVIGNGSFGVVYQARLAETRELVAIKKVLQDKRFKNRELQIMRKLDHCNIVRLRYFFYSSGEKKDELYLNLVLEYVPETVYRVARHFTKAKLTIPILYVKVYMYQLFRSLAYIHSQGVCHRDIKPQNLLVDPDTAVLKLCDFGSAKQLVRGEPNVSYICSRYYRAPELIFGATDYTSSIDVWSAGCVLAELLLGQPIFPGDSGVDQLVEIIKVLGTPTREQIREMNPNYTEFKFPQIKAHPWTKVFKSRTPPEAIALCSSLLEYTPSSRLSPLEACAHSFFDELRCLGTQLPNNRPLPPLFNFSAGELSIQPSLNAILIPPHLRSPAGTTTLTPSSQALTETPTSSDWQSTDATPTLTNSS

[7] = Luminescence Cell-Based Dose Confirmation to Identify Activators of 5'UTR Stem-Loop Driven Alpha-Synuclein mRNA Translation in H4 Neuroglioblastoma Cells. [Related pubchem assays: 1829 (Project Summary), 1814 (Primary HTS)]; type: functional
[8] = Luminescence Cell-Based Dose Response to Identify Activators of Luciferase Translation or Activity in H4-C Neuroglioblastoma Cells. [Related pubchem assays: 1829 (Project Summary), 1814 (Primary HTS)]; type: functional
CAAX prenyl protease 2 [9] = target: T1, CAAX prenyl protease 2 (Saccharomyces cerevisiae S288c, UniProt Q03530); experiment: yeast Rce1 CaaX protease inhibitors, dose response, biochemical, plate reader, dry powder retest (AID 588851)
T1 sequence (Q03530 whole entry): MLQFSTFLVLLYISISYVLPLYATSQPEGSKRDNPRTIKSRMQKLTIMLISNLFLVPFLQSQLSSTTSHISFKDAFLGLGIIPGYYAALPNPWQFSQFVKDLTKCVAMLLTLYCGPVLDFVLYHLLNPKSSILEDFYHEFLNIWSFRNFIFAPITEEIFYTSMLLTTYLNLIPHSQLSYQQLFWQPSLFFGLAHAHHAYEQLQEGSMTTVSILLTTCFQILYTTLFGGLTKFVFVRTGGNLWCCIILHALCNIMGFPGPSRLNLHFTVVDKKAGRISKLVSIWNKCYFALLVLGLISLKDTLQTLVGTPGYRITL

CAAX prenyl protease 2 [10] = target: T1, CAAX prenyl protease 2; type: biochemical
HEK293 [11] = experiment: HEK cell cytotoxicity by LDH release, dose response, cytotoxicity control for IDE activator project, fluorescence, HEK cells (AID 588440); type: functional, cell-based; details: Homo sapiens;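 note: cytotoxicity by LDH release measuring loss of membrane integrity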
Insulin-degrading enzyme [12] = target: T2, Insulin-degrading enzyme (Homo sapiens, UniProt P14735); experiment: activators of endogenous IDE in HEK cells, dose response, cell-based, fluorescence polarization (AID 588439); type: functional
T2 sequence (P14735 whole entry): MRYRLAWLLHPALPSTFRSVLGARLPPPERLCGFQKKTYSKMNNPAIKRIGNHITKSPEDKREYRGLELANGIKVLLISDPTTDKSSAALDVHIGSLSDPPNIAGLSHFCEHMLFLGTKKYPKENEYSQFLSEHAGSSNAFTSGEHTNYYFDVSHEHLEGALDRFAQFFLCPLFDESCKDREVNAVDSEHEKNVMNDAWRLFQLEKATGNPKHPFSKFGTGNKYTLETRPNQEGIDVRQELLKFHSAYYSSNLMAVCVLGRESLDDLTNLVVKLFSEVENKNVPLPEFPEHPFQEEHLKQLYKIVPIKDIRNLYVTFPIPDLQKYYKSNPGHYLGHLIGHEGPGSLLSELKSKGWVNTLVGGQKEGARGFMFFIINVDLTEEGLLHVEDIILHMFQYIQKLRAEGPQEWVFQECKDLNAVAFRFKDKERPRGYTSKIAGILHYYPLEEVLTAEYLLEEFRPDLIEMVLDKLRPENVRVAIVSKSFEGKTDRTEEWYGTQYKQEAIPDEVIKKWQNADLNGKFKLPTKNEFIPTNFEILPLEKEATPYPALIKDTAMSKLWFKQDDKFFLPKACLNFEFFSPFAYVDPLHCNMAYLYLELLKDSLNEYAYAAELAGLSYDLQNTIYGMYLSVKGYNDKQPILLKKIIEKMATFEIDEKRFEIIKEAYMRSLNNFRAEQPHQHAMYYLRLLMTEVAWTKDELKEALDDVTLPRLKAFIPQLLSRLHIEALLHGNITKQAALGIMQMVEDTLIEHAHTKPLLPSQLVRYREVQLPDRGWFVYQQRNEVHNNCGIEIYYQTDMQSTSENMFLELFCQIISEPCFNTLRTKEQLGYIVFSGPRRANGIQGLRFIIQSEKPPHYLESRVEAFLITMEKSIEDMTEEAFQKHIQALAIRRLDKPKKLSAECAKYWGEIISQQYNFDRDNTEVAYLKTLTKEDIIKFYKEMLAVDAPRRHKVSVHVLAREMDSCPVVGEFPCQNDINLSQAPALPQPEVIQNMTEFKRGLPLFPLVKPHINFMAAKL

Insulin-degrading enzyme [13] = target: T2, Insulin-degrading enzyme; experiment: activators of recombinant IDE enzyme, dose response, counter-screen for IDE activator project, biochemical, fluorescence polarization (AID 588681)
HEK293 [14] = experiment: optical interference in Abeta FP readout, dose response, artefact control for IDE activator project, biochemical, fluorescence polarization (AID 588442); type: functional, cell-based; details: Homo sapiens
[15] = target: T3, Sentrin-specific protease 8 (Homo sapiens, UniProt Q96LD8); experiment: SENP8 protease inhibitors, SAR follow-up, biochemical, luminescence (AID 504501); type: functional
T3 sequence (Q96LD8 whole entry): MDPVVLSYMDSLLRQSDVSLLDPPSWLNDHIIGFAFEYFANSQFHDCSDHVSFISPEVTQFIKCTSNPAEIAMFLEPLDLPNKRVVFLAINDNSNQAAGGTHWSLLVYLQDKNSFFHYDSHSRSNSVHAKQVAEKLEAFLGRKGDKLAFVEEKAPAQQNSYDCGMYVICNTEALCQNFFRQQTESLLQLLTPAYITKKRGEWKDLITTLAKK

Caspase-3 = target: T4, Caspase-3 (Homo sapiens, UniProt P42574); experiment: SAR Analysis of small molecule inhibitors of Sentrin-specific proteases (SENPs) using a Caspase-3 Selectivity assay. [Related pubchem assays (depositor defined):AID2540, AID2599, AID434973, AID489001]; type: functional
T4 sequence (P42574 whole entry): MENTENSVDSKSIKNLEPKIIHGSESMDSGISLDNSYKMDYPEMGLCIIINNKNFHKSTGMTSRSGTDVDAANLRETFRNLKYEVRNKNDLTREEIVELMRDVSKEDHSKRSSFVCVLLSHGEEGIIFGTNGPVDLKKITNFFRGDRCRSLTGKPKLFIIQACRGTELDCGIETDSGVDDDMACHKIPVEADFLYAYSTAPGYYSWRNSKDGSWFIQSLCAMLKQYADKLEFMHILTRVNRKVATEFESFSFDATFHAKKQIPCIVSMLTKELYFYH

[16] = target: T5, Sentrin-specific protease 7 (Homo sapiens, UniProt Q9BQF6); experiment: SENP7 protease inhibitors, SAR follow-up, biochemical, luminescence (AID 504497); type: functional
T5 sequence (Q9BQF6 whole entry): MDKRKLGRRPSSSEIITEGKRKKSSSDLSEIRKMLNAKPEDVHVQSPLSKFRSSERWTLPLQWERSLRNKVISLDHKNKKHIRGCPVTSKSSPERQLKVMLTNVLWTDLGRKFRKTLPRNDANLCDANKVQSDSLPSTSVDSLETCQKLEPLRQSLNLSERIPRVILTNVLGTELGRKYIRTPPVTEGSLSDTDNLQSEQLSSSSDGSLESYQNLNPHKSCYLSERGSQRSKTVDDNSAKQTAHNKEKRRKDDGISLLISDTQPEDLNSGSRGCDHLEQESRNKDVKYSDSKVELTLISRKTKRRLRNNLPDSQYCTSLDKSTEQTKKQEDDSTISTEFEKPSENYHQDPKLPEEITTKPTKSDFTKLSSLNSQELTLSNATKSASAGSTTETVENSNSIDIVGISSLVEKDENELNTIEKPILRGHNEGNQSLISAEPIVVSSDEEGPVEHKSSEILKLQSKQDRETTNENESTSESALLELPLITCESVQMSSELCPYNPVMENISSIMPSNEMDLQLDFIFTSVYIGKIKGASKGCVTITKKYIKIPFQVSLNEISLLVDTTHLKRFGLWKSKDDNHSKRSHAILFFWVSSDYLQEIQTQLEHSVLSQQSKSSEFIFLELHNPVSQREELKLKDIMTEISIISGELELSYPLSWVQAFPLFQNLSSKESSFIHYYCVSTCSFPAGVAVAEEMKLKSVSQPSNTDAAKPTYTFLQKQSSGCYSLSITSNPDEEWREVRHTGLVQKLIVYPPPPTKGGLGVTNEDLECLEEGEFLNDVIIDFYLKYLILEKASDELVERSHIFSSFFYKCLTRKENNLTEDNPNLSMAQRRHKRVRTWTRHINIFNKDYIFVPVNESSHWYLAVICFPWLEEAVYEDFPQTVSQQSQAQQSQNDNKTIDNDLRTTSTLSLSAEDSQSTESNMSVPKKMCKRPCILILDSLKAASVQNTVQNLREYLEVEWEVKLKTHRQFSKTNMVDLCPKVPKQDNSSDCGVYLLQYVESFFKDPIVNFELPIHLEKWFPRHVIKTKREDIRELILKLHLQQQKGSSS

[17] = target: T6, Sentrin-specific protease 6 (Homo sapiens, UniProt Q9GZR1); experiment: SAR Analysis of small molecule inhibitors of Sentrin-specific protease 6 (SENP6) using a Luminescent assay. [Related pubchem assays (depositor defined):AID2582, AID2599]; type: functional
T6 sequence (Q9GZR1 whole entry): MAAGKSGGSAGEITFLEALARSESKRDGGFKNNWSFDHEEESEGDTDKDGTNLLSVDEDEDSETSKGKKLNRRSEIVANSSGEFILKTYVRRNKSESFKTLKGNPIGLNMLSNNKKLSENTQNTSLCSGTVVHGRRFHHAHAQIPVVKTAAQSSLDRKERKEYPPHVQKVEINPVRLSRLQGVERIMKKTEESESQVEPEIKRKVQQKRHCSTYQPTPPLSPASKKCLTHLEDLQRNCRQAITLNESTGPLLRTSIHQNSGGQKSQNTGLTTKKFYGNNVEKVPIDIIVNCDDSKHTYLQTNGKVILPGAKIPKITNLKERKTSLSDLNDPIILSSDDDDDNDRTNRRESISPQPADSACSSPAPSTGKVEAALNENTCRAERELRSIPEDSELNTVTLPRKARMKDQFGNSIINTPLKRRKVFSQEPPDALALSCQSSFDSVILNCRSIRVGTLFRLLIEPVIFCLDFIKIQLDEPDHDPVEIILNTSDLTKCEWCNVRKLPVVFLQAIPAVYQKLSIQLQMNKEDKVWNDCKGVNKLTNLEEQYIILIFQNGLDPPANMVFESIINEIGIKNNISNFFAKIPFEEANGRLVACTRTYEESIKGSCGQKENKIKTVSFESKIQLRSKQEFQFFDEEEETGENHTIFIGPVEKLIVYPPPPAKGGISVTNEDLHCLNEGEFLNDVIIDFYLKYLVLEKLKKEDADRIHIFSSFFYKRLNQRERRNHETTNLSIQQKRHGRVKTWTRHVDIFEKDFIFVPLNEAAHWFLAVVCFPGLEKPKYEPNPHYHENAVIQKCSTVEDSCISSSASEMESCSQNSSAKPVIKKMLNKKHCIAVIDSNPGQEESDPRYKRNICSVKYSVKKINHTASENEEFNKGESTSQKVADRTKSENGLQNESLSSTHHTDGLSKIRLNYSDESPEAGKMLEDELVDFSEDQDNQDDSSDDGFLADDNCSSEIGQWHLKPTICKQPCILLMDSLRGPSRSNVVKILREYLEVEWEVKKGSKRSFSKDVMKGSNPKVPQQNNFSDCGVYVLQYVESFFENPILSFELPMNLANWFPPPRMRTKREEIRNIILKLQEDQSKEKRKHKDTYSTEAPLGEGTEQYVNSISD

Chain of HSP90 (Q8IL32 whole entry): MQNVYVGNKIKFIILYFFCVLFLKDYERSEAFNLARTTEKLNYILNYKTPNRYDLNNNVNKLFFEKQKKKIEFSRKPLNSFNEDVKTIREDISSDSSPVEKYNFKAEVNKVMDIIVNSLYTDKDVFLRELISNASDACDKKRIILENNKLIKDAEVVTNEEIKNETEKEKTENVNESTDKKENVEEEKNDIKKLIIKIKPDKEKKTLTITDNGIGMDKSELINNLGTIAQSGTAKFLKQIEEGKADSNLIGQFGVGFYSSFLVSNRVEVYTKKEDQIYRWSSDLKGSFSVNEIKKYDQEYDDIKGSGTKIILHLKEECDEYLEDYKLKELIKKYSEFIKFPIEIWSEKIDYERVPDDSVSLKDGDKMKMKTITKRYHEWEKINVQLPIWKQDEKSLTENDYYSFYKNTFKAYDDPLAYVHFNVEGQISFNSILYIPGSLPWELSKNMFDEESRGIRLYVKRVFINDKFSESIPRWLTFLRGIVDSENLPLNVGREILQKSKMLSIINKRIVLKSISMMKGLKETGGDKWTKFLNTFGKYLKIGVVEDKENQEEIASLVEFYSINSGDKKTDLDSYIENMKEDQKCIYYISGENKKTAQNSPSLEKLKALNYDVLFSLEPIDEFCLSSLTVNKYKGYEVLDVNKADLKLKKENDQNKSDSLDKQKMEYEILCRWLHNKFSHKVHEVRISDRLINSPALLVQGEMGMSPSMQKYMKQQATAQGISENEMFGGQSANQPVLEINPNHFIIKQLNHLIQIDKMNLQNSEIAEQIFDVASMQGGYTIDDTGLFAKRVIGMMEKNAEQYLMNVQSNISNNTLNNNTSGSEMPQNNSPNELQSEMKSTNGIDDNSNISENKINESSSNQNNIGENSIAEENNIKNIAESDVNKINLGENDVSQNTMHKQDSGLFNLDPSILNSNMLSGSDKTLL

CCCC1CCC(c2ccc(C(=N)NO)cc2)CC1 (stereo not given)
AC50 (HSP90): 28.6 µM (active)

CCNc1nc(N)c(C(=O)c2ccc(Cl)s2)s1
EC50 (H4): > 120 µM (not active)
AC50 [1]: < 16 nM (active)
AC50 [2]: 516 nM (active)
EC50 [3]: 1.21 µM (active)
EC50 [4]: 190 nM (active)
EC50 [5]: 233 nM (active)
AC50 [6]: < 21.8 nM (active)
EC50 [7]: 238 nM (active)
EC50 [8]: > 12 µM (not active)

Cc1cccc(-c2nnc(SCc3ccc(C#N)cc3)n2Cc2ccco2)c1
AC50 (CAAX prenyl protease 2 [9]): 16.8 µM (active)
AC50 (CAAX prenyl protease 2 [10]): 963 nM (active)

COc1ccc(C2CC(C(F)(F)F)n3nc(C(=O)O)c(Cl)c3N2)cc1OC (stereo not given)
IC50 (HEK293 [11]): > 89.2 µM (inactive)
EC50 (Insulin-degrading enzyme [12]): > 54.7 µM (inactive)
EC50 (Insulin-degrading enzyme [13]): 50.1 µM (inactive)
EC50 (HEK293 [14]): > 54.7 µM (inactive)

CCc1cccc2c(C(=O)CN3C(=O)c4ccccc4S3(=O)=O)c[nH]c12
IC50 [15]: > 99 µM (inactive)
IC50 (Caspase-3): > 99 µM (inactive)
IC50 [16]: > 99 µM (inactive)
IC50 [17]: > 99 µM (inactive)
